This is an account of results in patent US20260137819A1 (Radionetics Oncology, Inc., priority 2022, published 2026).

The structures appear in SMILES notation.

In one assay the target is T1, human follicle-stimulating hormone receptor (FSHR) (Homo sapiens, UniProt P23945).
T1 construct: host or cells: CHO-K1
T1 sequence (P23945 18-695): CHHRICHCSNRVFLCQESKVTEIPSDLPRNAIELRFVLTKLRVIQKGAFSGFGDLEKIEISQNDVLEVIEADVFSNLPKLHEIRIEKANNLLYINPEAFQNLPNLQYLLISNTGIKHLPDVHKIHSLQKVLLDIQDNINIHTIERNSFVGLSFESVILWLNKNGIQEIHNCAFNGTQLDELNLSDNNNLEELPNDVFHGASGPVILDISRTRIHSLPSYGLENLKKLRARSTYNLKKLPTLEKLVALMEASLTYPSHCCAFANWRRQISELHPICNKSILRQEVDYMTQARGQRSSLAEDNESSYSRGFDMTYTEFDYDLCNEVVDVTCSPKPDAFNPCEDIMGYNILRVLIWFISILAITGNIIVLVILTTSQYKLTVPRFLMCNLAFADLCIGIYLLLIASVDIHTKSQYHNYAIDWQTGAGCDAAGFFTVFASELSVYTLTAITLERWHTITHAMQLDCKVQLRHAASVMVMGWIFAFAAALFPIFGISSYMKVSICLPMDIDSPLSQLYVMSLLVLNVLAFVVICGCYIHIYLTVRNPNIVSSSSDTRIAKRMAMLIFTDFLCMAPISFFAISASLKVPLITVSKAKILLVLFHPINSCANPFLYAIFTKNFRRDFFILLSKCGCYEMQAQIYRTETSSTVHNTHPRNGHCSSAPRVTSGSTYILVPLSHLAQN
As to the kind of experiment: Measurement of agonist cAMP production by activation of human FSHR. In kind it is cell-based. The following applies: CHO-K1 human FSHR cells, 30 minutes at 37° C., HTRF cAMP kit; read-out: hFSHR Agonist cAMP EC50. A digest of the protocol: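 cAMP output was measured by HTRF after 30 min at 37 °C agonist exposure (0–10,000 nM final) in stably FSHR-transfected CHO-K1 cells. Lysate cAMP was read off a standard curve and fitted to obtain half-maximal EC50.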
As for `COc1cc2c(cc1-c1cccc(NC(=O)CCC(=O)N(CCOCCOCCOCCOCCOCCC(=O)O)C3CCN(C(=O)CN4CCN(CC(=O)O)CCN(CC(=O)O)CCN(CC(=O)O)CC4)CC3)c1)-c1c(c(C(=O)N3CCOCC3(C)C)nn1-c1cc(Cl)cc(Cl)c1)CO2` [Compound 45, 2,2′,2″-(10-(2-(4-(N-(17-carboxy-3,6,9,12,15-pentaoxaheptadecyl)-4-((3-(1-(3,5dichlorophenyl)-3-(3,3-dimethylmorpholine-4-carbonyl)-7-methoxy-1,4-dihydrochromeno|4,3-clpyrazol-8-yl)phenyl)amino)-4-oxobutanamido)piperidin-1-yl)-2-oxoethyl)-1,4,7,10-tetraazacyclododecane-1,4,7-triyl)triacetic acid], the 50% effective concentration (EC50) is under 10 nM. As for `COc1cc2c(cc1-c1cccc(NC(=O)CCC(=O)N(CC(=O)O)C3CCN(C(=O)CN4CCN(CC(=O)O)CCN(CC(=O)O)CCN(CC(=O)O)CC4)CC3)c1)-c1c(c(C(=O)N3CCOCC3(C)C)nn1-c1cc(Cl)cc(Cl)c1)CO2` [Compound 46, 2,2′,2″-(10-(2-(4-(N-(carboxymethyl)-4-((3-(1-(3,5-dichlorophenyl)-3-(3,3dimethylmorpholine-4-carbonyl)-7-methoxy-1,4-dihydrochromeno|4,3-clpyrazol-8-yl)phenyl)amino)-4-oxobutanamido)piperidin-1-yl)-2-oxoethyl)-1,4,7,10-tetraazacyclododecane-1,4,7-trivl)triacetic acid], the EC50 lay in the range of 10 to 100 nM. The same measure, in the same setting: the result for `COc1cc2c(cc1-c1cccc(NC(=O)CCOCC(COCCC(=O)O)(COCCC(=O)O)NC(=O)CN3CCN(CC(=O)O)CCN(CC(=O)O)CCN(CC(=O)O)CC3)c1)-c1c(c(C(=O)N3CCOCC3(C)C)nn1-c1cc(Cl)cc(Cl)c1)CO2` [Compound 47, 2,2′,2″-(10-(2-((1,3-bis(2-carboxyethoxy)-2-((3-((3-(1-(3,5-dichlorophenyl)-3(3,3-dimethylmorpholine-4-carbonyl)-7-methoxy-1,4-dihydrochromeno|4,3-clpyrazol-8-yl)phenyl)amino)-3-oxopropoxy)methyl)propan-2-yl)amino)-2-oxoethyl)-1,4,7,10-tetraazacyclododecane-1,4,7-triyl)triacetic acid] reads 10 to 100 nM.

Take `COc1cc2c(cc1-c1cncc(NC(=O)CCC(=O)NC[C@H](NC(=O)CN3CCN(CC(=O)O)CCN(CC(=O)O)CCN(CC(=O)O)CC3)C(=O)N3CCN(CCS(=O)(=O)O)CC3)c1)-c1c(c(C(=O)N3CCOCC3(C)C)nn1-c1cc(F)cc(F)c1)CO2` [Compound 49, (S)-2,2′,2″-(10-(2-((3-(4-((5-(1-(3,5-difluorophenyl)-3-(3,3-dimethylmorpholine-4-carbonyl)-7-methoxy-1,4-dihydrochromeno[4,3-c]pyrazol-8-yl)pyridin-3-yl)amino)-4-oxobutanamido)-1-oxo-1-(4-(2-sulfoethyl)piperazin-1-yl)propan-2-yl)amino)-2-oxoethyl)-1,4,7,10-tetraazacyclododecane-1,4,7-triyl)triacetic acid--formic acid (1/1)]: the EC50 is over 100 nM. As for `COc1cc2c(cc1-c1cccc(NC(=O)CCC(=O)NCCCC[C@@H](NC(=O)[C@@H](CC(=O)O)NC(=O)[C@@H](CC(=O)O)NC(=O)CCNC(=O)CN3CCN(CC(=O)O)CCN(CC(=O)O)CCN(CC(=O)O)CC3)C(N)=O)c1)-c1c(c(C(=O)N3CCOCC3(C)C)nn1-c1cc(Cl)cc(Cl)c1)CO2` [Compound 51, 2,2′,2″-(10-((8R,11R,14R)-14-carbamoyl-8,11-bis(carboxymethyl)-23-((3-(1(3,5-dichlorophenyl)-3-(3,3-dimethylmorpholine-4-carbonyl)-7-methoxy-1,4-dihydrochromeno[4,3-c]pyrazol-8-yl)phenyl)amino)-2,6,9,12,20,23-hexaoxo-3,7,10,13,19-pentaazatricosyl)-1,4,7,10-tetraazacyclododecane-1,4,7-triyl)triacetic acid], the EC50 was under 10 nM.

For the compound `COc1cc2c(cc1-c1cncc(NC(=O)CCOCCOCCNC(=O)CN3CCN(CC(=O)O)CCN(CC(=O)O)CCN(CC(=O)O)CC3)c1)-c1c(c(C(=O)N3CCOCC3(C)C)nn1-c1cc(Cl)cc(Cl)c1)CO2` [Compound 52, 2,2′,2″-(10-(2-((2-(2-(3-((5-(1-(3,5-dichlorophenyl)-3-(3,3-dimethylmorpholine-4-carbonyl)-7-methoxy-1,4-dihydrochromeno[4,3-c]pyrazol-8-yl)pyridin-3-yl)amino)-3-oxopropoxy)ethoxy)ethyl)amino)-2-oxoethyl)-1,4,7,10-tetraazacyclododecane-1,4,7-triyl)triacetic acid--2,2,2-trifluoroacetic acid (1/1)], the EC50 was under 10 nM. The same measure, in the same setting: the result for `COc1cc2c(cc1-c1cncc(NC(=O)CCOCCNC(=O)CN3CCN(CC(=O)O)CCN(CC(=O)O)CCN(CC(=O)O)CC3)c1)-c1c(c(C(=O)N3CCOCC3(C)C)nn1-c1cc(Cl)cc(Cl)c1)CO2` [Compound 53, 2,2′,2″-(10-(2-((2-(3-((5-(1-(3,5-dichlorophenyl)-3-(3,3-dimethylmorpholine-4-carbonyl)-7-methoxy-1,4-dihydrochromeno[4,3-c]pyrazol-8-yl)pyridin-3-yl)amino)-3-oxopropoxy)ethyl)amino)-2-oxoethyl)-1,4,7,10-tetraazacyclododecane-1,4,7-triyl)triacetic acid--2,2,2-trifluoroacetic acid (1/1)] reads under 10 nM; that for `COc1cc2c(cc1-c1cncc(NC(=O)CCOCCOCCNC(=O)C3OC(CNC(=O)CN4CCN(CC(=O)O)CCN(CC(=O)O)CCN(CC(=O)O)CC4)C(O)C(O)C3O)c1)-c1c(c(C(=O)N3CCOCC3(C)C)nn1-c1cc(Cl)cc(Cl)c1)CO2` [Compound 54, 2,2′,2″-(10-(2-((((2S,3R,4R,5R,6S)-6-((2-(2-(3-((5-(1-(3,5-dichlorophenyl)-3-(3,3-dimethylmorpholine-4-carbonyl)-7-methoxy-1,4-dihydrochromeno[4,3-c]pyrazol-8-yl)pyridin-3-yl)amino)-3-oxopropoxy)ethoxy)ethyl)carbamoyl)-3,4,5-trihydroxytetrahydro-2H-pyran-2-yl)methyl)amino)-2-oxoethyl)-1,4,7,10-tetraazacyclododecane-1,4,7-triyl)triacetic acid--2,2,2-trifluoroacetic acid (1/1)], under 10 nM.

The same assay, now with this note: hFSHR Agonist cAMP EC50, CHO-K1 human FSHR cells, 30 minutes at 37° C., HTRF cAMP kit.
Take `COc1cc2c(cc1-c1cncc(NC(=O)CCNC(=O)[C@@H](CCCCNC(=O)CN3CCN(CC(=O)O)CCN(CC(=O)O)CCN(CC(=O)O)CC3)NC(=O)CN3CCN(CCS(=O)(=O)O)CC3)c1)-c1c(c(C(=O)N3CCOCC3(C)C)nn1-c1cc(F)cc(F)c1)CO2` [Compound 50, (R)-2,2′,2″-(10-(2-((6-((3-((5-(1-(3,5-difluorophenyl)-3-(3,3-dimethylmorpholine-4-carbonyl)-7-methoxy-1,4-dihydrochromeno[4,3-c]pyrazol-8-yl)pyridin-3-yl)amino)-3-oxopropyl)amino)-6-oxo-5-(2-(4-(2-sulfoethyl)piperazin-1-yl)acetamido)hexyl)amino)-2-oxoethyl)-1,4,7,10-tetraazacyclododecane-1,4,7-triyl)triacetic acid--formic acid (1/1)]: the concentration for a half-maximal effect (EC50) is over 100 nM.
